These results are taken from patent publication US8946273B2, “S-Triazolyl alpha-mercapto acetanilides as inhibitors of HIV reverse transcriptase” (priority 2011, dated 2015).

Where two headings read alike, the source gives them in different places. Some results are limits rather than exact numbers.

For experiment [1], the target named is mutant HIV reverse transcriptases (Human immunodeficiency virus type 1, UniProt P12497, Y768C, cells depend on it). Type of experiment: cell-based.
The target in experiment [2] is mutant HIV reverse transcriptases (Human immunodeficiency virus type 1, UniProt P12497, Y775L, cells depend on it). The class given is cell-based.
Experiment [3] has as its system wild type HIV-1. In words: microbe, parasite or virus in culture. Type of experiment: cell-based, human immunodeficiency virus type 1 (HIV-1).
Experiment [4] addresses T1, wild-type HIV reverse transcriptase (Human immunodeficiency virus type 1 group M subtype B, UniProt P04585).
T1 construct: wild-type and four mutant HIV reverse transcriptases
The experiment in a line: Activity on wild type reverse transcriptase (Table 1 IC50 WT). Type of experiment: biochemical. The procedure:
Using similar methods as described above, 2-[5-bromo-4-(4-cyclopropylnaphthalen-1-yl)-4H-[1,2,4]triazol-3-ylsulfanyl]-N-(2-methyl-4-sulfamoylphenyeacetamide and 2-[5-bromo-4-(4-ethylnaphthalen-1-yl)-4H-[1,2,4]triazol-3-ylsulfanyl]-N-(2-chloro-4-sulfamoylphenyl)-acetamide were synthesized, as were the N-4-carbamyl analog, 2-[5-bromo-4-(4-ethyl-naphthalen-1-yl)-4H-[1,2,4]triazol-3-ylsulfanyl]-N-(2-chloro-4-carbamoylphenyl)-acetamide and the N-4-carboxyl analog. Each of the compounds was tested against a panel of mutant HIV reverse transcriptases, including 20 of the 22 of the mutants that are found in about 2% or more of the patient samples that are resistant to the most widely used non-nucleoside HIV-RT inhibitor efavirenz ((4S)-6-chloro-4-(cyclopropylethynyl)-1,4-dihydro-4-(trifluoromethyl)-2H-3,1-benzoxazin-2-one). […] In most cases both criteria were met. […] […].
Compounds of the invention were tested against the wild-type and four mutant HIV reverse transcriptases. The results are listed in Table 1 as EC50 (nM) and IC50 (nM). In the Table, A represents <50 nM, B is between 50 and 100 nM, and C is >100 nM. ND is not determined.

Setting [5] is: Human immunodeficiency virus 1, Hela-JC53, read-out: EC50 WT.

Usually EC50 stands for the concentration needed to bring the measured effect to its halfway point. One may read the IC50 as the concentration at which inhibition is half-maximal. With `CCc1ccc(-n2c(SCC(=O)Nc3ccc(C(=O)O)cc3Cl)nnc2C(F)(F)F)c2ccccc12` [compound 16], the EC50 was 50 to 100 nM in experiment [1], above 100 nM in experiment [2] and below 50 nM in experiment [3] (setting [5]). Also, the half-maximal inhibitory concentration (IC50) in experiment [4] was below 50 nM.

As for `CCc1ccc(-n2c(CF)nnc2SCC(=O)Nc2ccc(C(=O)O)cc2Cl)c2ccccc12` [compound 17], the EC50 in experiment [1] is below 50 nM; in experiment [2] it was above 100 nM; in experiment [3] (setting [5]), below 50 nM. The IC50 in experiment [4] is below 50 nM.

As to `COc1ccc2c(C3CC3)ccc(-n3c(Br)nnc3SCC(=O)Nc3ccc(S(=O)(=O)O)cc3Cl)c2c1` [compound 19], the EC50 was 50 to 100 nM in experiment [1]; above 100 nM in experiment [2]; 50 to 100 nM in experiment [3] (read-out: EC50 WT, wild-type (WT) HIV-1). Besides, the IC50 in experiment [4] (read-out: IC50 WT RT, wild-type (WT) RT) is below 50 nM.

With `CCc1ccc(-n2c(Br)nnc2SCC(=O)Nc2ccc(S(=O)(=O)O)cc2Br)c2ccccc12` [compound 20], the EC50 in experiment [1], in experiment [2] and in experiment [3] (setting [5]) was above 100 nM throughout. Besides, the IC50 in experiment [4] was below 50 nM.

Take `O=C(CSc1nnc(Br)n1-c1ccc(C2CC2)cc1Cl)Nc1ccc(S(=O)(=O)O)cc1Cl` [compound 21]: the values for the concentration giving a half-maximal response (EC50) in experiment [1], in experiment [2] and in experiment [3] (setting [5]) were above 100 nM, above 100 nM and 50 to 100 nM, respectively. The IC50 in experiment [4] is below 50 nM.

In the case of `CCc1ccc(-n2c(Br)nnc2SCC(=O)Nc2ccc(C(=O)O)cc2Br)c2ccccc12` [compound 22], the EC50 is below 50 nM in experiment [1], 50 to 100 nM in experiment [2] and below 50 nM in experiment [3] (setting [5]). Moreover, the IC50 in experiment [4] is below 50 nM.

As to `Cc1cc(C2CC2)c2ccccc2c1-n1c(Br)nnc1SCC(=O)Nc1ccc(C(=O)O)cc1Cl` [compound 23], the EC50 in experiment [1], in experiment [2] and in experiment [3] (setting [5]) was below 50 nM in each case. Besides, the half-maximal inhibitory concentration (IC50) in experiment [4] was below 50 nM.

For `O=C(CSc1nnc(Br)n1-c1ccc(C2CC2)cc1OC(F)(F)F)Nc1ccc(S(=O)(=O)O)cc1Cl` [compound 24], the EC50 in experiment [1], in experiment [2] and in experiment [3] (setting [5]) was above 100 nM each time. The IC50 in experiment [4] is below 50 nM.

Turning to `O=C(CSc1nnc(Br)n1-c1c(Cl)cc(C2CCC2)c2ccccc12)Nc1ccc(C(=O)O)cc1Cl` [compound 25], the EC50 in experiment [1], in experiment [2] and in experiment [3] (setting [5]) was below 50 nM each time. The molecule further displayed a half-inhibitory concentration (IC50) in experiment [4] below 50 nM.

In the case of `O=C(CSc1nnc(Br)n1-c1ccc(C2CCC2)c2ccccc12)Nc1ccc(C(=O)O)cc1Cl` [compound 26], the EC50 in experiment [1], in experiment [2] and in experiment [3] (setting [5]) was below 50 nM each time. The molecule further yielded an IC50 in experiment [4] below 50 nM.

Turning to `COc1cccc2c(-n3c(Br)nnc3SCC(=O)Nc3ccc(C(=O)O)cc3Cl)cccc12` [compound 27], the concentration for a half-maximal effect (EC50) in experiment [1] is below 50 nM; in experiment [2], above 100 nM; in experiment [3] (setting [5]), below 50 nM. For the same molecule, the IC50 in experiment [4] is below 50 nM.

As for `CCc1cc(C2CC2)ccc1-n1c(Br)nnc1SCC(=O)Nc1ccc(C(=O)O)cc1Cl` [compound 29], the results for the EC50 in experiment [1], in experiment [2] and in experiment [3] (setting [5]) were below 50 nM, above 100 nM and below 50 nM, respectively. The IC50 in experiment [4] was below 50 nM.

Consider `O=C(CSc1nnc(Br)n1-c1ccc(C2CC2)cc1C(F)(F)F)Nc1ccc(C(=O)O)cc1Cl` [compound 30], for which the results for the concentration giving a half-maximal response (EC50) in experiment [1], in experiment [2] and in experiment [3] (setting [5]) were below 50 nM, above 100 nM and below 50 nM, respectively. This molecule registered an IC50 in experiment [4] below 50 nM.

For `O=C(CSc1nnc(Br)n1-c1ccc(C2CC2)cc1Cl)Nc1ccc(C(=O)O)cc1Cl` [compound 31], the values for the EC50 in experiment [1], in experiment [2] and in experiment [3] (setting [5]) were below 50 nM, above 100 nM and below 50 nM, respectively. In experiment [4], the half-inhibitory concentration (IC50) was below 50 nM.

For `O=C(CSc1nnc(Br)n1-c1cccc2c(OCC3CC3)cccc12)Nc1ccc(C(=O)O)cc1Cl` [compound 32], the EC50 in experiment [1], in experiment [2] and in experiment [3] (setting [5]) was above 100 nM in each case. The same molecule registered an IC50 in experiment [4] above 100 nM.

In the case of `Cc1cc(C2CC2)cc(C)c1-n1c(Br)nnc1SCC(=O)Nc1ccc(C(=O)O)cc1Cl` [compound 33], the EC50 in experiment [1] is below 50 nM; in experiment [2], above 100 nM; in experiment [3] (setting [5]) it was below 50 nM. In experiment [4], the IC50 was below 50 nM.

On to `NS(=O)(=O)c1ccc(NC(=O)CSc2nnc(C(F)F)n2-c2ccc3c4c(cccc24)CC3)c(Cl)c1` [compound 36], for which the EC50 in experiment [1], in experiment [2] and in experiment [3] (setting [5]) was below 50 nM in each case. In addition, the half-maximal inhibitory concentration (IC50) in experiment [4] was below 50 nM.

With `NS(=O)(=O)c1ccc(NC(=O)CSc2nnc(Br)n2-c2ccc3c4c(cccc24)CC3)c(Cl)c1` [compound 37], the EC50 in experiment [1], in experiment [2] and in experiment [3] (setting [5]) was below 50 nM each time. This molecule displayed a half-maximal inhibitory concentration (IC50) in experiment [4] below 50 nM.

As to `Cc1cc(S(N)(=O)=O)ccc1NC(=O)CSc1nnc(Br)n1-c1ccc2c3c(cccc13)CC2` [compound 38], the EC50 in experiment [1], in experiment [2] and in experiment [3] (setting [5]) was below 50 nM throughout. For the same molecule, in experiment [4], the half-inhibitory concentration (IC50) was below 50 nM.

For the molecule `Cc1cc(S(N)(=O)=O)ccc1NC(=O)CSc1nnc(Br)n1-c1ccc(C2CC2)c2ccccc12` [compound 40], the EC50 in experiment [1], in experiment [2] and in experiment [3] (setting [5]) was below 50 nM in each case. For the same molecule, the IC50 in experiment [4] was below 50 nM.

As to `CCc1ccc(-n2c(C)nnc2SCC(=O)Nc2ccc(S(N)(=O)=O)cc2C)c2c1CCCC2` [compound 41], the EC50 in experiment [1] is below 50 nM; in experiment [2] it was above 100 nM; in experiment [3] (setting [5]) it was below 50 nM. The molecule also showed an IC50 in experiment [4] below 50 nM.

For the molecule `CCc1ccc(-n2c(C)nnc2SCC(=O)Nc2ccc(S(N)(=O)=O)cc2Cl)c2c1CCCC2` [compound 43], the EC50 in experiment [1], in experiment [2] and in experiment [3] (setting [5]) was below 50 nM throughout. In addition, in experiment [4], the IC50 was below 50 nM.

As to `NS(=O)(=O)c1ccc(NC(=O)CSc2nnc(C(F)F)n2-c2ccc(C3CC3)c3ccccc23)c(Cl)c1` [compound 44], the EC50 in experiment [1], in experiment [2] and in experiment [3] (setting [5]) was below 50 nM each time. In addition, the half-inhibitory concentration (IC50) in experiment [4] was below 50 nM.

As to `Cc1cc(S(N)(=O)=O)ccc1NC(=O)CSc1nnc(C)n1-c1ccc(C)c2c1CCCC2` [compound 45], the EC50 in experiment [1] was below 50 nM; in experiment [2], 50 to 100 nM; in experiment [3] (setting [5]), below 50 nM. Moreover, the 50% inhibitory concentration (IC50) in experiment [4] is below 50 nM.

Consider `Cc1ccc(-n2c(C)nnc2SCC(=O)Nc2ccc(S(N)(=O)=O)cc2Cl)c2c1CCCC2` [compound 46], for which the EC50 in experiment [1], in experiment [2] and in experiment [3] (setting [5]) was below 50 nM in each case. Further, in experiment [4], the 50% inhibitory concentration (IC50) was below 50 nM.

With `CCc1ccc(-n2c(SCC(=O)Nc3ccc(S(N)(=O)=O)cc3Cl)nnc2C(F)F)c2c1CCCC2` [compound 47], the EC50 in experiment [1], in experiment [2] and in experiment [3] (setting [5]) was below 50 nM throughout. In experiment [4], this molecule yielded a 50% inhibitory concentration (IC50) below 50 nM.

On to `Cc1cc(S(N)(=O)=O)ccc1NC(=O)CSc1nnc(C(F)F)n1-c1ccc(C)c2c1CCCC2` [compound 48], for which the EC50 in experiment [1] is below 50 nM; in experiment [2] it was 50 to 100 nM; in experiment [3] (setting [5]), below 50 nM. The same molecule returned a half-maximal inhibitory concentration (IC50) in experiment [4] below 50 nM.

In the case of `CCc1ccc(-n2c(CF)nnc2SCC(=O)Nc2ccc(S(N)(=O)=O)cc2C)c2ccccc12` [compound 49], the EC50 in experiment [1] was below 50 nM; in experiment [2], above 100 nM; in experiment [3] (setting [5]) it was below 50 nM. The molecule further gave an IC50 in experiment [4] below 50 nM.

Regarding `Cc1cc(C2CC2)c2ccccc2c1-n1c(Br)nnc1SCC(=O)Nc1ccc(S(N)(=O)=O)cc1Cl` [compound 50], the 50% effective concentration (EC50) in experiment [1], in experiment [2] and in experiment [3] (setting [5]) was below 50 nM throughout. In experiment [4], this molecule showed an IC50 below 50 nM.

For the molecule `CNS(=O)(=O)c1ccc(NC(=O)CSc2nnc(C(F)F)n2-c2ccc(C)c3c2CCCC3)c(Cl)c1` [compound 51], the EC50 in experiment [1], in experiment [2] and in experiment [3] (setting [5]) was below 50 nM throughout. Further, in experiment [4], the IC50 was below 50 nM.

Consider `Cc1cc(S(N)(=O)=O)ccc1NC(=O)CSc1nnc(CF)n1-c1c(C)cc(C)c2ccccc12` [compound 52], for which the EC50 in experiment [1], in experiment [2] and in experiment [3] (setting [5]) was below 50 nM each time. The molecule further had an IC50 in experiment [4] below 50 nM.

As to `CNS(=O)(=O)c1ccc(NC(=O)CSc2nnc(C(F)F)n2-c2ccc(C)c3ccccc23)c(Cl)c1` [compound 54], the EC50 in experiment [1] is below 50 nM; in experiment [2], 50 to 100 nM; in experiment [3] (setting [5]), below 50 nM. The molecule further returned an IC50 in experiment [4] below 50 nM.

For the molecule `CCc1ccc(-n2c(CF)nnc2SCC(=O)Nc2ccc(S(=O)(=O)NC)cc2Cl)c2ccccc12` [compound 55], the figures for the EC50 in experiment [1], in experiment [2] and in experiment [3] (setting [5]) were below 50 nM, 50 to 100 nM and below 50 nM, respectively. The molecule further yielded an IC50 in experiment [4] of 50 to 100 nM.
